As usually defined, the Kd is the equilibrium constant for the complex coming apart.

Data set [1] concerns anti-EUGs mAb. The data set can be described thus: broad-spectrum indirect competitive ELISA. The data set is classed as binding, mice. As to conditions: for CR (cross-reactivity): CR=[(IC50 eugenol)/(IC50 analog)]×100%; for LOD (IC10) / linear range (IC20–IC80): in buffer solution. On the technique in general: In an ELISA, binding on a coated surface is turned into a signal by an enzyme label.

The next data set has as its system 1B5 mAb. As to conditions: previously reported mAb; ref [2] Lei et al., 2023; cited from earlier work.
For data set [2], the system named is anti-EUGs mAb. Kind of data set: antibody affinity by saturation concentration method. The data set is classed as binding, mice. As to conditions: mAb to eugenol.
For data set [3] the following is noted: ref Li et al., 2015; cited from earlier work.
For data set [4] the following is noted: National Toxicology Program; ref Li et al., 2015; cited from earlier work.

With `CCc1ccc(O)c(OC)c1` [4-Ethyl-2-methoxyphenol], the “CR (cross-reactivity)” value with anti-EUGs mAb [1] was determined as 8.7%.
As to `CCOC(=O)c1ccc(N)cc1` [Benzocaine], in the data set with anti-EUGs mAb [1], the “CR (cross-reactivity)” value is recorded as less than 0.4%.
As to `Oc1ccccc1O` [Catechol], the “CR (cross-reactivity)” value in the data set with anti-EUGs mAb [1] is given as less than 0.4%.
Turning to `C=CCc1ccc(O)c(OC)c1` [Eugenol], the “IC50 of mAb 1B5” value in the data set on 1B5 mAb is recorded as 9.23 ng/mL. Also, in the data set with anti-EUGs mAb [2] (Ka is the inverse of Kd), the “dissociation constant Ka” value is 1.3e+09 L/mol. For the same molecule, the Kd at anti-EUGs mAb [2] (read-out: affinity constant Kd) was found to be 0.77 nM. For the same molecule, in data set [3], the IARC carcinogen category result is listed as “Group 3 carcinogen”. In the data set on anti-EUGs mAb [1], the “CR (cross-reactivity)” value was 100%, the “LOD (IC10)” value turned out to be 3.16 ng/mL and the “linear range (IC20–IC80)” value was in the range of 7.92 to 184.05 ng/mL.
As for `COc1ccccc1O` [Guaiacol], the “CR (cross-reactivity)” value in the data set with anti-EUGs mAb [1] is reported as less than 0.4%.
As to `C=CCc1ccc(OC)c(OC)c1` [Methyl eugenol], in the data set on anti-EUGs mAb [1], the “CR (cross-reactivity)” value is 4773.8%, the “LOD (IC10)” value was determined as 0.06 ng/mL and the “linear range (IC20–IC80)” value is 0.15 to 4.30 ng/mL. Besides, the liver cancer risk entry in data set [4] is on record as “potential to elevate the risk of liver cancer”.
`C/C=C/c1ccc(OC)c(OC)c1` [Methyl isoeugenol]: in the data set on anti-EUGs mAb [1], the “CR (cross-reactivity)” value amounted to 8679.5%, the “LOD (IC10)” value is 0.02 ng/mL and the “linear range (IC20–IC80)” value is 0.06 to 3.04 ng/mL.
As for `CC(C)c1cccc(C(C)C)c1O` [Propofol], the “CR (cross-reactivity)” value in the data set on anti-EUGs mAb [1] is less than 0.4%.
For the molecule `CCCCNc1ccc(C(=O)OCCN(C)C)cc1` [Tetracaine], in the data set on anti-EUGs mAb [1], the “CR (cross-reactivity)” value is given as less than 0.4%.
In the case of `CCOC(=O)c1cccc(N)c1.CS(=O)(=O)O` [Tricaine methanesulfonate], the “CR (cross-reactivity)” value in the data set with anti-EUGs mAb [1] was less than 0.4%.
`COc1cc(C=O)ccc1O` [Vanillin]: the “CR (cross-reactivity)” value in the data set on anti-EUGs mAb [1] is recorded as less than 0.4%.
As for `COc1ccc(C=O)cc1OC` [Veratraldehyde], the “CR (cross-reactivity)” value in the data set with anti-EUGs mAb [1] is less than 0.4%.
With Isoeugenol, in the data set on anti-EUGs mAb [1], the “CR (cross-reactivity)” value was determined as 25460.0%, the “LOD (IC10)” value amounted to 0.00935 ng/mL and the “linear range (IC20–IC80)” value was in the range of 0.026 to 0.865 ng/mL.

(Values after paper PMC10912603 (Food Chemistry: X, 2024).)
